Test system: human OA knee cartilage explants
Test: Gene expression in OA cartilage explants
Type: cell-based
Details: n = 7 donors, 24 h, normalized to 28S rRNA, relative to control; BMP7 1 nM (Figure 6A)
Method: To determine whether peptide p[63−82] has the potency to alter chondrocyte behavior in cartilage tissue, rather than isolated HACs, cartilage biopsies from OA knees were cultured in the presence of peptide p[63−82], alongside its scrambled version and full-length BMP7.
Figure 6 Peptide p[63−82] activity on OA knee joint tissues Human OA knee joint tissues were cultured for 24 h in the presence of BMP7, peptide p[63−82], or the scrambled version of peptide p[63−82] and compared to control conditions. (A) Cartilage tissues (n = 7 individual donors) were exposed to shown conditions and analyzed for COL2A1, COL10A1, and COX-2 mRNA expression by quantitative real-time PCR (normalized for 28S rRNA expression and relative to control conditions). (B) GAG release in medium from cartilage tissues (n = 5 individual donors) was determined, and data were calculated relative to the control condition. (C) PGE2 levels in culture supernatant from synovium (n = 5 donors). (D) PGE2 levels in culture supernatant from cartilage tissues from (B) (n = 5 donors). (E) PGE2 levels in culture supernatant from IPFP (n = 5 donors). (F) PGE2 levels in culture supernatant from the meniscus. Synovium, IPFP, and meniscus tissues were from the same 5 donors as the cartilage tissues in (B) and (C). PGE2 levels in conditions were calculated relative to controls for each donor. […] Statistical differences (unpaired two-tailed Student’s t test) were calculated to control condition: ∗p < 0.05, ∗∗p < 0.01, and ∗∗∗p < 0.001.
Cartilage was obtained from total knee arthroplasty of end-stage (K&L grades 3−4) OA patients and from resected knee cartilage from cartilage repair procedures of non-OA patients. […] The bioluminescent readout was performed by lysing cells in Passive Lysis Buffer (Promega) and measuring luciferase activity using the Berthold TriStar^2 LB 942 Modular Multimode Microplate Reader using the Luciferase Assay System for firefly luciferase (BRE and CAGA12) (Promega) and the Gaussia Luciferase Kit (New England Biolabs). […]

Substance	COL2A1, COL10A1, and COX-2 mRNA expression in cartilage explants
BMP7: full-length recombinant bone morphogenetic protein 7 (R&D Systems), used at 1 nM	comparable
H-AAYYSEGESAFPLNSYMNAT-OH [p[63−82]]	induce COL2A1 while inhibiting COL10A1 and COX-2 expression
H-SEASPAMYYLNATANFYESG-OH [scrambled p[63−82], scrambled version of peptide p[63−82], reference compound]	lacked this activity

Reference: publication PMC8022858, “Discovery of bone morphogenetic protein 7-derived peptide sequences that attenuate the human osteoarthritic chondrocyte phenotype” (Molecular Therapy. Methods & Clinical Development, 2021)
